Test results as given in US10654838B2, “Aminopyridine compounds useful as inhibitors of protein prenylation” (INSTITUT NATIONAL DE LA SANTE ET DE LA RECHERCHE MEDICALE …, priority 2014, dated 2020).

Columns and labels:
HGPS MSCs = assay: Osteogenic differentiation (alkaline phosphatase activity); assay type: cell-based, human; settings: 7 days of osteogenic differentiation
Description: MSC were seeded at 600 cells per well in 384 well plate in MSC culture medium and treated as previously described. After 72 hours, MSC medium was replaced by STEMPRO osteogenic induction medium (Invitrogen) in presence or not of the different drugs. After 7 days of treatment, cells were fixed with ethanol 95% and stained by adding either a colorimetric substrate of the alkaline phosphatase, the 5-Bromo-4-chloro-3-indolyl phosphate/Nitro blue tetrazolium (NBT) (Sigma-Aldrich) or a chromogenic substrate of this enzyme (absorbance at 405 nm), the p-Nitrophenyl Phosphate (pNPP) (Pierce Biotechnology).

FPPS = target: T1, FPPS (Homo sapiens, UniProt P14324); assay: FPPS activity assay; assay type: biochemical; set-up: endogenous in cells; host or cells: HGPS MSCs (cell lysate); settings: concentration inducing 50% of the maximum inhibiting effect of the compound
T1 sequence (P14324 1-419): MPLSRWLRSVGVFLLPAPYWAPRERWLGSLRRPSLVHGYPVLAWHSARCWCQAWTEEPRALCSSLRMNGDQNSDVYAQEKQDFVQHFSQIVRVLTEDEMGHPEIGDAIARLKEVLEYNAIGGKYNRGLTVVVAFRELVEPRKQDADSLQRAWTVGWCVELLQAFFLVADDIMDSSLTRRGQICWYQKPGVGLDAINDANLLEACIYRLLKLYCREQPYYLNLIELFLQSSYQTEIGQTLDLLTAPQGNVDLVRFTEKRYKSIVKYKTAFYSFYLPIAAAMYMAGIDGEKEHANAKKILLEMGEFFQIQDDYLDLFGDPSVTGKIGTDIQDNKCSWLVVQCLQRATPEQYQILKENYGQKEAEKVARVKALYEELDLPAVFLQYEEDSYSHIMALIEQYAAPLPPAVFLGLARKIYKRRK
Description: Cell pellet of HGPS MSCs were resuspended in 25 mM Tris-HCl pH 7.4, 1 mM DTT, 1 mM MgCl2, 1 EDTA, 1 mM PMSF and centrifuged at 10,000×g for 10 min at 4° C. Protein content was determined using Lowry's method. Aliquots of cell lysate containing 100 μg of total proteins were incubated with tested substances at 37° C. for 30 min.
FPPS assay was carried out with some modifications of the procedure of Krisans et al. (Krisans et al., 1994, The Journal of biological chemistry VOL. 269: 14165-14169) and described by Gupta et al. (Gupta et al., 1999, Eur J Med Chem, VOL. 43: 2751-2767). Briefly, FPPS was assayed in 150 μL containing 25 mmol/L Hepes, pH=7, 2 mmol/L MgCl2, 1 mmol/L dithiothreitol, 5 mmol/L KF, 1% A noctyl-β-glucopyranoside, 3.3 μmol/L [4-14C] IPP (18 Ci/mmol), 3 μmol/L unlabeled IPP and 20 μmol/L geranyl diphosphate. Reactions were started by adding 40 μL of treated or untreated cell lysate and incubated for 45 min at 37° C. Reactions were stopped by the addition of 150 μL 2.5 mol/L HCl in 80% ethanol containing 100 μg/mL farnesol as a carrier. The samples were hydrolyzed for 30 min at 37° C. to convert the FPP to farnesol and neutralized by the addition of 150 μL of 10% NaOH. The reaction product (farnesol) was extracted into 1 mL of N-hexane and an aliquot (200 μL) of the organic phase was used for radioactivity counting. Parallel samples were assayed to evaluate the total and the nonspecific radioactivity. In all experiments, enzyme assays were carried out in triplicate.

IC50 (FPPS): 1.55 µM
SMILES: N#CC(c1ccccn1)c1ccnc(N2CCN(Cc3ccccc3F)CC2)n1 (centres unmarked) [Mono-AP1, {2-[4-(2-fluoro-benzyl)-piperazin-1-yl]-pyrimidin-4-yl}-pyridin-2-yl-acetonitrile]
rescue of premature osteogenic differentiation (alkaline phosphatase activity) (HGPS MSCs): not significantly different to those observed following FTI treatment
